≈ marks a conversion by molar mass, not a printed value.
Legend:
Assay in all cases: Antimicrobial activity (MIC)
Assay type in all cases: cell-based
Leuconostoc lactis = details: Leuconostoc lactis, DSM20202; Strain ID DSM 20202; potato dextrose broth pH 3.8; read-out: Minimal Inhibitory Concentration (MIC)
[1] = system: Brettanomyces naardenensis; details: Brettanomyces naardenensis, CBS6115; Strain ID CBS 6115; potato dextrose broth pH 3.8; read-out: Minimal Inhibitory Concentration (MIC)
[2] = system: Cladosporium cladosporioides; details: Cladosporium cladosporioides; Strain ID DSM19653; potato dextrose broth pH 3.8; read-out: Minimal Inhibitory Concentration (MIC)
Clostridium sporogenes = details: Clostridium sporogenes, ATCC19404; Strain ID ATCC 19404; potato dextrose broth pH 3.8; read-out: Minimal Inhibitory Concentration (MIC)
[3] = system: Fusobacterium nucleatum subsp. vincentii; details: Fusobacterium nucleatum, DSM19507; Strain ID DSM 19507; potato dextrose broth pH 3.8; read-out: Minimal Inhibitory Concentration (MIC)
Zygosaccharomyces bailii = details: Zygosaccharomyces bailii, DSM70834; Strain ID DSM 70834; potato dextrose broth pH 3.8; read-out: Minimal Inhibitory Concentration (MIC)
Enterobacter cloacae = details: Enterobacter cloacae, DSM6234; Strain ID DSM 6234; potato dextrose broth pH 3.8; read-out: Minimal Inhibitory Concentration (MIC)
Aspergillus brasiliensis = details: Aspergillus brasiliensis, DSM1988; Strain ID DSM 1988; potato dextrose broth pH 3.8; read-out: Minimal Inhibitory Concentration (MIC)
Corynebacterium xerosis = details: Corynebacterium xerosis, DSM20743; Strain ID DSM 20743; potato dextrose broth pH 3.8; read-out: Minimal Inhibitory Concentration (MIC)
Actinomyces viscosus = details: Actinomyces viscosus; Strain ID DSM43798; potato dextrose broth pH 3.8; read-out: Minimal Inhibitory Concentration (MIC)
Pseudomonas aeruginosa = details: Pseudomonas aeruginosa, DSM1117; Strain ID DSM 1117; potato dextrose broth pH 3.8; read-out: Minimal Inhibitory Concentration (MIC)
Alternaria alternata = details: Alternaria alternata, DSM12633; Strain ID DSM 12633; potato dextrose broth pH 3.8; read-out: Minimal Inhibitory Concentration (MIC)
Botrytis cinerea = details: Botrytis cinerea, DSM5145; Strain ID DSM 5145; potato dextrose broth pH 3.8; read-out: Minimal Inhibitory Concentration (MIC)

SMILES: C[C@@H]1O[C@@H](O[C@H]2[C@H](O[C@H]3CC[C@@]4(C)[C@@H](CC[C@]5(C)[C@@H]4CC=C4[C@@H]6CC(C)(C)CC[C@]6(C(=O)O)CC[C@]45C)[C@]3(C)CO)OC[C@H](O)[C@@H]2O)[C@H](O)[C@H](O[C@@H]2OC[C@@H](O)[C@H](O)[C@H]2O)[C@H]1O [A, Sapindoside B [30994-75-3]]
- MIC (Leuconostoc lactis): 80 µg/mL (≈ 90.6 µM)
- MIC [1]: > 80 µg/mL
- MIC [2]: > 80 µg/mL
- MIC (Clostridium sporogenes): 80 µg/mL (≈ 90.6 µM)
- MIC [3]: 80 µg/mL (≈ 90.6 µM)
- MIC (Zygosaccharomyces bailii): > 80 µg/mL
- MIC (Enterobacter cloacae): > 80 µg/mL
- MIC (Aspergillus brasiliensis): > 80 µg/mL
- MIC (Corynebacterium xerosis): > 80 µg/mL
- MIC (Actinomyces viscosus): > 80 µg/mL
- MIC (Pseudomonas aeruginosa): > 80 µg/mL
- MIC (Alternaria alternata): > 80 µg/mL
- MIC (Botrytis cinerea): > 80 µg/mL

From patent publication EP4316461A1, “A PRESERVATIVE COMPOSITION” (BRAIN Biotech AG, priority 2022, dated 2024)
